{"source": "paper PMC3729231", "about": "(Bioorganic & medicinal chemistry letters, 2012)", "key": {"29 other GPCRs": {"system": "29 other GPCRs", "experiment": "PDSP GPCR binding assay panel: other GPCRs", "details": "listed as ML221"}, "[1]": {"details": "aqueous acetonitrile; data not shown"}, "APJ": {"target": "T1, APJ (Homo sapiens, UniProt P35414)", "T1 sequence (P35414 1-380)": "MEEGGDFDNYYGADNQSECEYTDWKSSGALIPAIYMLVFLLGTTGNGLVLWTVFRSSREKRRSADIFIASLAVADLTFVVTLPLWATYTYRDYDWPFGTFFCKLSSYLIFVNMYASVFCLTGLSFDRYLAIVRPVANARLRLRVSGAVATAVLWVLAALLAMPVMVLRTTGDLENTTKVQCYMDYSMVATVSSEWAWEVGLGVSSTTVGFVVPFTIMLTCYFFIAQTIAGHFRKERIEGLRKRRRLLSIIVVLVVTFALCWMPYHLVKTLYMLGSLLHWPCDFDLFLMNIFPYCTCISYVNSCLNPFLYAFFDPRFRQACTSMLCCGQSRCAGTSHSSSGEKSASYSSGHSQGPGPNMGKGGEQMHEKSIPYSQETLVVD", "experiment": "cell-based"}}, "data": [{"compound": "O=C(Oc1coc(CSc2ncccn2)cc1=O)c1ccc([N+](=O)[O-])cc1", "note": "[Entry 6, 4-oxo-6-((pyrimidin-2-ylthio)methyl)-4H-pyran-3-yl 4-nitrobenzoate]", "values": [{"measurement": "binding activity against other GPCRs (in words)", "setting": "29 other GPCRs", "value": "no significant binding activity"}]}, {"compound": "Cc1ccnc(SCc2cc(=O)c(OC(=O)c3ccc(Cl)c([N+](=O)[O-])c3)co2)n1", "note": "[Entry 29]", "values": [{"measurement": "hydrolytic stability of the ester bond (in words)", "setting": "[1]", "value": "readily hydrolyzed"}]}, {"compound": "Cc1ccnc(SCc2cc(=O)c(NC(=O)c3ccc([N+](=O)[O-])cc3)co2)n1", "note": "[Entry 67]", "values": [{"measurement": "IC50", "setting": "APJ", "value": "12.8 ± 0.35", "unit": "µM"}]}]}
